For one experiment, the system named is R1.1 (HCT116-RDAC). The experiment in a line: MTT based cell survival assay, DAC resistant HCT116 clone R1.1. Also noted: species or system human. The method, then:
(§1) The DAC resistant HCT116 cell lines were developed using two methods.
(§2) The method is primarily based on reduction of yellow colored tetrazolium salt, 3-(4,5-dimethylthiazol-2-yl)-2,5-diphenyltetrazolium bromide (MTT) to insoluble purple colored formazan crystals by NAD(P)H-dependent oxidoreductase enzymes in mitochondria of the viable cell.
(§3) Cells in 80 μL of medium were plated in each of the experimental and the control wells, followed by addition of 20 μL medium with five-fold drug concentration to experimental wells. The wells with medium alone were included alongside as blank for absorbance readings. After 72 h of drug treatment, 10 μL MTT (Sigma-Aldrich) prepared in 1×PBS (5 mg/mL) was added to all wells including blank and control, and incubated until the purple formazan crystals were visible after which 100 μL of detergent (10% SDS, pH: 5.5) was added and the plates were incubated overnight to solubilize the formazan and the cellular material.
(§4) Cross resistance was determined as the fold increase, whereas, the sensitivity was determined as the fold decrease in the IC50 of the drugs for the resistant cell lines compared to their genetically identical drug sensitive counterpart.

A further experiment has as its system R1.2 (HCT116-RDAC). The experiment in a line: MTT based cell survival assay, DAC resistant HCT116 clone R1.2. Also noted: species or system human. As for the experimental part:
as §1, §2, §3, §4

The subject of a further experiment is HCT116. The experiment in a line: MTT based cell survival assay, parental HCT116. Also noted: species or system human. Particulars: Homo sapiens. The method, then:
(§5) To study the mechanism of resistance towards DNA methylation inhibitor, 2′-deoxy-5-azacytidine, we used the human colorectal cancer cell line (HCT116), human promyelocytic leukemia cells (HL-60), and human breast adenocarcinoma cell line (MCF-7) obtained from American Type Culture Collection (Manassas, Va.). The cell lines were cultured in complete growth media (Sigma-Aldrich, St. Louis, Mo.), supplemented with fetal bovine serum (FBS, PAN-Biotech GmbH, Aidenbach, Germany), 100 U/mL penicillin (Biotika, Slovenská L'upča, Slovak Republic) and 50 μg/mL streptomycin (Sigma-Aldrich), and the cultures were maintained at 37° C. and 5% CO2, in a humidified incubator. The cell line, HCT116 was grown in McCoy's 5 A medium supplemented with 10% FBS and 3 mM L-glutamine (Sigma-Aldrich), HL-60 was grown in Iscove's Modified Dulbecco's Medium with 20% FBS, and MCF-7 was grown in RPMI-1640 medium with 10% FBS.
The method is primarily based on reduction of yellow colored tetrazolium salt, 3-(4,5-dimethylthiazol-2-yl)-2,5-diphenyltetrazolium bromide (MTT) to insoluble purple colored formazan crystals by NAD(P)H-dependent oxidoreductase enzymes in mitochondria of the viable cell. The intensity of the purple color produced on solubilization of the formazan crystals is directly proportional to the number of viable cells (Meerloo J. V. et al., Methods in Molecular Biology 2011; 731, 237-45).
as §3, with “To determine the IC50 of the epigenetic drugs (Tocris Bioscience, Bristol, United Kingdom), four independent experiments were performed using triplicate wells of 96 well plates. Cells” for “Cells”, “[…],” for “After 72 h of drug treatment,”
as §4

The next experiment concerns R2.1 (HCT116-RDAC). The experiment in a line: MTT based cell survival assay, DAC resistant HCT116 clone R2.1. Also noted: species or system human. The method, then:
as §1, §2, §3, §4

The subject of the next experiment is R2.2 (HCT116-RDAC). The experiment in a line: MTT based cell survival assay, DAC resistant HCT116 clone R2.2. Details: species or system human. The method, then:
as §1, §2, §3, §4

In a further experiment the test system is HL-60. The experiment in a line: MTT based cell survival assay, parental HL-60. Particulars: Homo sapiens, HL-60, read-out: Mean IC50. The method, then: as §5, with “The cell line, HCT116 was grown in McCoy's 5 A medium supplemented with 10% FBS and 3 mM L-glutamine (Sigma-Aldrich), HL-60 was grown in Iscove's Modified Dulbecco's Medium with 20% FBS, and MCF-7 was grown in RPMI-1640 medium with 10% FBS.” left out
(§6) To determine the IC50 of the epigenetic drugs (Tocris Bioscience, Bristol, United Kingdom), four independent experiments were performed using triplicate wells of 96 well plates. […] The wells with medium alone were included alongside as blank for absorbance readings. […]
as §4

The test system of the next experiment is HL-60_RDAC. The experiment can be described thus: MTT based cell survival assay, DAC resistant HL-60. Also noted: species or system human. As for the experimental part:
(§7) For cross validation of data obtained from comparative studies of HCT116 parental and resistant cells, we further developed DAC resistant MCF-7 and HL-60 cell lines. […] However, DAC resistant HL-60 cells were obtained as a gift from the author (Qin T. et al., Blood 2009; 113, 659-67) and was further selected in our laboratory by treatment with 5 μM DAC.
(§8) MTT based cell survival assay was performed in either case, whether to determine the cross-resistance of the DAC resistant cell lines towards inhibitors of DNA methyltransferases, histone acetyltransferases, histone methyltransferases, histone deacetylases, and histone demethylases, or to determine their sensitivity towards selective BET bromodomain inhibitors. […]
as §6, §4

The test system of a further experiment is MCF-7_RDAC. The experiment can be described thus: MTT based cell survival assay, DAC resistant MCF-7. Also noted: species or system human. As for the experimental part:
as §7, §8, §6, §4

The mark [1] stands for this setting: Homo sapiens, HCT-116, 72 h, read-out: Mean IC50.

Read-outs that look alike come from different tables or passages of the source.

From US20180251847A1, “METHOD OF PREDICTING THE TUMOR RESPONSE TO DNA METHYLATION INHIBITORS AND ALTERNATIVE THERAPEUTIC REGIMEN FOR OVERCOMING RESISTANCE” (PALACKY UNIVERSITY, OLOMOUC, priority 2014, published 2018) come the findings set out here.

Regarding `Nc1ncn([C@H]2C[C@H](O)[C@@H](CO)O2)c(=O)n1` [DAC, 2′-deoxy-5-azacytidine], the IC50 in the experiment on R1.1 (HCT116-RDAC) (setting [1]) was above 100 µM; in the experiment on R1.2 (HCT116-RDAC) (setting [1]) it was above 100 µM; with HCT116 (HCT-116, 72 h, read-out: Mean IC50), 0.28 µM; with HCT116 (HCT-116, 120 h, read-out: IC50 concentration of the drug), 0.28 µM; in the experiment with R2.1 (HCT116-RDAC) (Homo sapiens, HCT-116, R2.1, MTT, 72 h drug treatment) it was above 100 µM; with R2.2 (HCT116-RDAC) (setting [1]) it was above 100 µM. The IC50 in the experiment with HL-60 was 0.078 µM; in the experiment with HL-60_RDAC (Homo sapiens, HL-60, read-out: Mean IC50), above 100 µM; in the experiment with MCF-7_RDAC (Homo sapiens, MCF7, read-out: Mean IC50), above 100 µM. Also, the “fold change (resistance index)” value in the experiment on R1.1 (HCT116-RDAC) (IC50 R1.1 / IC50 HCT116), with R1.2 (HCT116-RDAC) (IC50 R1.2 / IC50 HCT116), in the experiment with R2.1 (HCT116-RDAC) (IC50 R2.1 / IC50 HCT116) and with R2.2 (HCT116-RDAC) (IC50 R2.2 / IC50 HCT116) was “(>357) fold” in each case. Besides, the “fold change (resistance)” value was above 1289 fold in the experiment with HL-60_RDAC (IC50 HL-60_RDAC / IC50 HL-60) and above 421 fold with MCF-7_RDAC (IC50 MCF-7_RDAC / IC50 MCF-7).
